From ChEMBL document CHEMBL1201862, “PubChem BioAssay data set” (2004)
Activity calls are given as the source filed them.

Legend:
[1] = target: T1, Corticotropin-releasing factor receptor 2/Corticotropin-releasing factor-binding protein (Homo sapiens, UniProt P24387+Q13324); assay: Dose Response confirmation of uHTS hits for small molecule antagonists of the CRF-binding protein and CRF-R2 receptor complex.; assay type: functional; conditions: read-out: IC50_Mean
T1 sequence (Q13324 whole entry): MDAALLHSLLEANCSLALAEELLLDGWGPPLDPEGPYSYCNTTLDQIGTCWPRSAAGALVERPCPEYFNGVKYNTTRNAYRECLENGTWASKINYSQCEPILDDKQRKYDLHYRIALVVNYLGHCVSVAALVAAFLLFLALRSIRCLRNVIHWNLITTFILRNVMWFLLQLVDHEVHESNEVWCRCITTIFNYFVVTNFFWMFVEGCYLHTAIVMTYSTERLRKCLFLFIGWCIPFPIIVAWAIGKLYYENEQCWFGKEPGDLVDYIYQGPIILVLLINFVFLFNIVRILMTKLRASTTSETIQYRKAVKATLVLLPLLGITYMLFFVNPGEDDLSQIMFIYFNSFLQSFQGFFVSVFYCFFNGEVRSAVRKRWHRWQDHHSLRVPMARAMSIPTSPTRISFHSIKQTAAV
T1 sequence (P24387 whole entry): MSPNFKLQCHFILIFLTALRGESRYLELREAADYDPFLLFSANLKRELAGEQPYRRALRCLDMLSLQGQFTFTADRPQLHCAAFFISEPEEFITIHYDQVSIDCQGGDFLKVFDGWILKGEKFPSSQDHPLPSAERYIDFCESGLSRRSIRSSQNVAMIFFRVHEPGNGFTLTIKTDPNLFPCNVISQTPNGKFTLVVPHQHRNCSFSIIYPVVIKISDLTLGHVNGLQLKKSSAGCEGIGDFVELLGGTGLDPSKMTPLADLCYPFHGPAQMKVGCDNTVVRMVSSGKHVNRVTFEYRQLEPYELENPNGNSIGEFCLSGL

[2] = target: T1, Corticotropin-releasing factor receptor 2/Corticotropin-releasing factor-binding protein; assay: activators of CRF receptor 2 with binding protein – uHTS hits, confirmation (AID 602473); assay type: functional; conditions: read-out: EC50_Mean
Cytochrome P450 2C9 = Cytochrome P450 2C9 (Homo sapiens, UniProt P11712)
Chain of Cytochrome P450 2C9 (P11712 whole entry): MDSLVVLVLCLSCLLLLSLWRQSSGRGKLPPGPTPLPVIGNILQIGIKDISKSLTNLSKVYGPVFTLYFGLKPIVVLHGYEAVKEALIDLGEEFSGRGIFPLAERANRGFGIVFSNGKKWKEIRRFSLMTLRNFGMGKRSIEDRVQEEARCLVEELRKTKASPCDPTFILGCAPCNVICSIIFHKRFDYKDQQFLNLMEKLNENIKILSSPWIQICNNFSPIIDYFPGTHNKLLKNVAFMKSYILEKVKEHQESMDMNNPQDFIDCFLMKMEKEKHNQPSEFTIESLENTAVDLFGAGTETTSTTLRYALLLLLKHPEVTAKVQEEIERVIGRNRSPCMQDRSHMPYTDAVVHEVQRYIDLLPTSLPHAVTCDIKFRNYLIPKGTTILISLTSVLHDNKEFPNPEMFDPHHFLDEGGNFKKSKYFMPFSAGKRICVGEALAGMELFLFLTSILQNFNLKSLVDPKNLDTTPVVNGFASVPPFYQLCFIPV

Cytochrome P450 1A2 = target: T2, Cytochrome P450 1A2 (Homo sapiens, UniProt P05177);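 also: PubChem cytochrome P450 panel assay, CYP1A2 panel member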
T2 sequence (P05177 whole entry): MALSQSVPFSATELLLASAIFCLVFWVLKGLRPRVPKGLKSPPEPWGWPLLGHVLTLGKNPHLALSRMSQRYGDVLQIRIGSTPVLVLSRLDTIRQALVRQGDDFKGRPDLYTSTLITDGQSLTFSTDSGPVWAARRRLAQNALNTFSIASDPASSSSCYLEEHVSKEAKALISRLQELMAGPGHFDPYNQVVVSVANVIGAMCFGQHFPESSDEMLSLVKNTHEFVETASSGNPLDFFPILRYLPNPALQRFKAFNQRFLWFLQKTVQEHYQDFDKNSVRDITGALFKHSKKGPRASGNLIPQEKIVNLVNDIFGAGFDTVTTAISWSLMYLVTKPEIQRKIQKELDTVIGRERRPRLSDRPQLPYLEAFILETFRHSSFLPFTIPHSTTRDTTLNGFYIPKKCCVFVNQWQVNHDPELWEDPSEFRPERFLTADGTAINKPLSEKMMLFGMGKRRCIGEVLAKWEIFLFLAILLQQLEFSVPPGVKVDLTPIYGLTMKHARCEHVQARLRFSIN

Cytochrome P450 3A4 = Cytochrome P450 3A4 (Homo sapiens, UniProt P08684);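 also: CYP3A4 tested as one member of a cytochrome P450 panel screen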
Chain of Cytochrome P450 3A4 (P08684 whole entry): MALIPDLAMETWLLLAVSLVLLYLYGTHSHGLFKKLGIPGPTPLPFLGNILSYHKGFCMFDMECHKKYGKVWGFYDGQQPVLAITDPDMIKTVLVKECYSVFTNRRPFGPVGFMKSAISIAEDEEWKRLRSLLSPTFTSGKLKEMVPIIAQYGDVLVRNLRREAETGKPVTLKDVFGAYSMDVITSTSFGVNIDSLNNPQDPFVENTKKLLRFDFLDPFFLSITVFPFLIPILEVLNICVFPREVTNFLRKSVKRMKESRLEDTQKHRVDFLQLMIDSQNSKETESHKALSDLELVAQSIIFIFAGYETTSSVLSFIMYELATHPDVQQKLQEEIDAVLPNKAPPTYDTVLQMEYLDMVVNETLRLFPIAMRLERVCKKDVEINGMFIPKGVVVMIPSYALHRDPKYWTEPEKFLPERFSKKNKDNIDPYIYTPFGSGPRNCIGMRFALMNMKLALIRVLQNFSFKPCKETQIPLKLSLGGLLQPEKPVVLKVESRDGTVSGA

H9c2 = assay: cells; assay type: functional, cell-based; conditions: Rattus norvegicus, H9c2, Myocardium;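 also: confirmatory concentration-response retest of ultra-high-throughput screening hits for modulation of myocardial damage; cell death induced by hydrogen peroxide oxidative stress; compound pretreatment for 60 min then peroxide exposure for 2 h; potency is for protecting the cells against peroxide damage rather than for killing them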
Cytochrome P450 2C19 = Cytochrome P450 2C19 (Homo sapiens, UniProt P33261); assay: Cytochrome panel assay with activity outcomes. Panel member name: p450-cyp2c19 Compounds with AC50 equal or less than 10 uM are considered active; assay type: functional
Chain of Cytochrome P450 2C19 (P33261 whole entry): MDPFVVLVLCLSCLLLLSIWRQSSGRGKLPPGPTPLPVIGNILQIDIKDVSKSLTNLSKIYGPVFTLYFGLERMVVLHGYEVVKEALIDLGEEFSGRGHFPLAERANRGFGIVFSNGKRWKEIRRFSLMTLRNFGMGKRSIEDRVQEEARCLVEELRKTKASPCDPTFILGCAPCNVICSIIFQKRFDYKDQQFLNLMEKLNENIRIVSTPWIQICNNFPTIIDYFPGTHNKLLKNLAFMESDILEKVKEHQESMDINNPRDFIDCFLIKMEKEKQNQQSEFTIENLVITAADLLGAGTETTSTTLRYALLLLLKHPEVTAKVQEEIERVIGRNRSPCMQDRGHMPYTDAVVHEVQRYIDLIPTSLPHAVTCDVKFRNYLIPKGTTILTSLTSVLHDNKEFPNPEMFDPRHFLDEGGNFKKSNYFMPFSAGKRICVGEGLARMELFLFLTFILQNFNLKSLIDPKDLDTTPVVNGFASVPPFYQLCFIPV

Streptococcus = assay: GAS UMAA2166 growth inhibition – luminescence, BacTiterGlo, counter-screen for streptokinase expression inhibitor project, dose response (AID 1915); assay type: functional, organism-based;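 also: potency for reduction of bacterial viability or growth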
[3] = system: Streptococcus sp. 'group A'; assay: Streptococcus pyogenes SK(-)GAS viability under kanamycin – luminescence, BacTiterGlo, confirmation, counter-screen for streptokinase expression inhibitor project, dose response (AID 1900); assay type: functional, organism-based
[4] = Luminescence Cell-Based Dose Response HTS to Identify Activators of Luciferase Translation or Activity in H4 […] Cells. [Related pubchem assays: 1829 (Project Summary), 1814 (Primary HTS)]; assay type: functional

Row | IC50 [1] | EC50 [2] | AC50 (Cytochrome P450 3A4) | SMILES | other results
1 | > 47.1 µM (inactive) | > 53 µM (inactive) | – | NC(=O)c1ccc(NCC2COc3ccccc3O2)c([N+](=O)[O-])c1 (centres undefined) | –
2 | > 47.1 µM (inactive) | > 53 µM (inactive) | – | CCN(CC(=O)Nc1c(F)cccc1F)C(=O)c1ccc2c(=O)n3c(nc2c1)CCC3 | –
3 | > 47.1 µM (inactive) | > 53 µM (inactive) | – | O=C(Nc1cccc(O)c1)c1ccc(NC(=O)c2cccs2)cc1 | –
4 | > 47.1 µM (inactive) | > 53 µM (inactive) | – | CC#CCCCC(=O)Nc1ccccc1C(=O)O | –
5 | – | – | 14.1 µM (inconclusive) | COc1ccc(NC(=O)c2cc(S(=O)(=O)N3CCS(=O)(=O)CC3)ccc2Cl)cc1 | –
6 | > 47.1 µM (inactive) | > 53 µM (inactive) | – | Cc1ccc(NC(=O)COC(=O)CCC(=O)c2cccs2)c(Br)c1 | –
7 | > 47.1 µM (inactive) | > 53 µM (inactive) | – | Cc1cc(C)n(C(=O)CNC(=O)c2ccccc2Br)n1 | –
8 | – | – | 25.1 µM (inconclusive) | Cc1nnc(-c2cnn(-c3ccccc3)c2N)n1Cc1ccccc1 | AC50 (Cytochrome P450 2C9): 39.8 µM (inconclusive)
9 | – | – | 28.2 µM (inconclusive) | CCN1CCN(C(=O)C2c3cc(OC)c(OC)cc3C(=O)N3CCc4ccccc4C23)CC1 (centres undefined) | AC50 (Cytochrome P450 2C19): inconclusive
10 | > 47.1 µM (inactive) | > 53 µM (inactive) | – | CCOc1ccc(NC(=O)Nc2cc(C)ccc2OC)cc1 | –
11 | > 47.1 µM (inactive) | > 53 µM (inactive) | – | Cc1ccccc1Cn1c(=O)sc2ccccc2c1=O | –

Second part, the compound before the results:

Row | SMILES | IC50 [1] | EC50 [2] | AC50 (Cytochrome P450 3A4) | other results
12 | O=C1CCc2cc(S(=O)(=O)N3CCC(C(=O)NC4CCCCCCC4)CC3)ccc2N1 | > 47.1 µM (inactive) | 34 µM (active) | – | –
13 | Cc1[nH]c(=O)[nH]c(=O)c1S(=O)(=O)N1CCCC(C(=O)N2CCN(c3ccccc3Cl)CC2)C1 (centres undefined) | > 47.1 µM (inactive) | > 53 µM (inactive) | – | –
14 | COc1cccc(Cn2c(=O)c(-c3cccs3)nc3cnc(Nc4cccc(OC)c4)nc32)c1 | – | – | 12.6 µM (inconclusive) | AC50 (Cytochrome P450 2C9): 0.794 µM (inconclusive); AC50 (Cytochrome P450 1A2): 2.51 µM (inconclusive)
15 | O=C(CCCSc1nc(O)c2c3c(sc2n1)CCC3)NCCO | – | – | – | IC50 (H9c2): > 79 µM (inactive)
16 | COc1cccc(C(=O)Nc2cc(C)c3c(=O)oc4ccccc4c3n2)c1 | – | – | – | IC50 (H9c2): > 79 µM (inactive)
17 | C=CCNC(S)=NNc1ncnc2sc3c(c12)CC(C)(C)OC3 | – | – | 17.8 µM (inconclusive) | AC50 (Cytochrome P450 2C9): 8.91 µM (inconclusive); AC50 (Cytochrome P450 1A2): 12.6 µM (inconclusive); AC50 (Cytochrome P450 2C19; read-out: AC50): 8.91 µM (inconclusive)
18 | O=c1c(-c2cc(F)cc(F)c2)nc2cncnc2n1Cc1ccccc1Cl | – | – | 15.8 µM (inconclusive) | AC50 (Cytochrome P450 1A2): 5.01 µM (inconclusive)
19 | C/C(CC(=O)Nc1ccc(Cl)c(C(F)(F)F)c1)=N\NC(=O)c1ccccc1O | – | – | – | EC50 (Streptococcus): 3.68 µM (active); EC50 [3]: 2.77 µM (active)
20 | CCOC(=O)c1sc(NC(=O)C(C)(C)C)cc1C | – | – | – | EC50 [4]: 13 µM (active)
21 | CC(C)CN1CC[C@@]2(CCCN(C(=O)c3csnn3)C2)C1 | – | – | 20 µM (inconclusive) | –
22 | O=C(NC(=S)N1CCN(c2nc(-c3ccccc3)cs2)CC1)c1cncc(Br)c1 | – | – | – | EC50 (Streptococcus): 3.91 µM (active); EC50 [3]: 3.04 µM (active)
23 | Cc1cc(OCc2nc(N)nc(N)c2-c2ccc(Cl)c(Cl)c2)ccc1[N+](=O)[O-] | – | – | 3.98 µM (inconclusive) | AC50 (Cytochrome P450 1A2): 5.01 µM (inconclusive)
24 | CCOC(=O)c1csc(Nc2nc3ccc(F)cc3s2)n1 | – | – | – | EC50 (Streptococcus): 11.4 µM (active); EC50 [3]: 5.24 µM (active)
25 | CN1CCN(c2ncc3nc(-c4cc(F)cc(F)c4)c(=O)n(CCC#N)c3n2)CC1 | – | – | 15.8 µM (inconclusive) | AC50 (Cytochrome P450 2C9): 31.6 µM (inconclusive); AC50 (Cytochrome P450 1A2): 15.8 µM (inconclusive)
26 | COc1cccc(Cn2c(=O)c(-c3cccs3)nc3cnc(N(C)C)nc32)c1 | – | – | 15.8 µM (inconclusive) | AC50 (Cytochrome P450 1A2): 15.8 µM (inconclusive); AC50 (Cytochrome P450 2C19; read-out: AC50): 0.00631 µM (inconclusive)
27 | CCC(C)NS(=O)(=O)c1ccc(OCC(=O)Nc2ccc3c(c2)OCCO3)cc1 (centres undefined) | – | – | 15.8 µM (inconclusive) | AC50 (Cytochrome P450 2C19; read-out: AC50): 7.08 µM (inconclusive)
